This is an account of results in article PMC3734253, “A Novel Color Change Mechanism for Breast Cancer Biomarker Detection: Naphthoquinones as Specific Ligands of Human Arylamine N-Acetyltransferase 1” (PLoS ONE, 2013).

Data set [1] deals with T1, hNAT2 (Homo sapiens, UniProt P11245).
T1 sequence (P11245 1-290): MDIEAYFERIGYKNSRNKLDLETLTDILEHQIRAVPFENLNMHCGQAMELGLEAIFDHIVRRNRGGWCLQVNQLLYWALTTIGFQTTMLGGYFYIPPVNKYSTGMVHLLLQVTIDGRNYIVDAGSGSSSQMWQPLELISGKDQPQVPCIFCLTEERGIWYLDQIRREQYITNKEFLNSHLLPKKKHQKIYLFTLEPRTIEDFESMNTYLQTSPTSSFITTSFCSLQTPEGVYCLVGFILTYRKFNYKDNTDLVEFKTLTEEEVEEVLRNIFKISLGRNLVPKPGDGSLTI
The experiment in a line: Visible spectrum of compound in presence of hNAT2. The class given is binding. As to conditions: with hNAT2. The protocol:
(§1) Visible spectra of each compound were recorded with a U-2001 spectrophotometer (Hitachi) using 1 mL plastic cells of 1 cm path-length (FisherBrand) or 50 μL UVettes® (Eppendorf). Concentrations of inhibitors and protein used are given in the appropriate figure legends. All spectra were blank-corrected.

For data set [2], the target named is T2, mNat2 (Mus musculus, UniProt P50295).
T2 construct: hexa-histidine tag (cleaved yes); made in house; host or cells: E. coli Rosetta(DE3)pLysS
T2 sequence (P50295 1-290): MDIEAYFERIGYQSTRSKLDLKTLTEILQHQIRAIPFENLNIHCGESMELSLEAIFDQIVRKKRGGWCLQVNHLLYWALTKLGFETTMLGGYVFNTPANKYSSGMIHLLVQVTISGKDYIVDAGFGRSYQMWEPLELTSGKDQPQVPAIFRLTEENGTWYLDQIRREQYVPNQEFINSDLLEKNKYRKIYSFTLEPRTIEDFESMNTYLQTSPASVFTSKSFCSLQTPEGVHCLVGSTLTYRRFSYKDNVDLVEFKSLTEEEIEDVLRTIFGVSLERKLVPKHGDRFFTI
Description: Visible spectrum of compound in presence of mNat2. Particulars: with mNat2, 20 mM Tris.HCl pH 8. The class given is binding. The protocol: as §1
(§2) 15 μM compound 4 was prepared using different conditions: 20 mM aq Tris.HCl, pH 8, 5% DMSO (v/v); 80 mM aq NaOH, pH 13.75, 5% DMSO (v/v); with hNAT1 (30 μM) in 20 mM aq Tris.HCl, pH 8, 5% DMSO (v/v); with mNat2 (30 μM) 20 mM aq Tris.HCl, pH 8, 5% DMSO (v/v). Wavelength scans from 800 to 350 nm were recorded against the respective blanks containing no compound 4.
(§3) 15 μM compound 5 was prepared using different conditions: 20 mM aq Tris.HCl, pH 8, 5% DMSO (v/v); 80 mM aq NaOH, pH 13.75, 5% DMSO (v/v); with hNAT1 (30 μM) in 20 mM aq Tris.HCl, pH 8, 5% DMSO (v/v); with mNat2 (30 μM) 20 mM aq Tris.HCl, pH 8, 5% DMSO (v/v). Wavelength scans from 800 to 350 nm were recorded against the respective blanks containing no compound 5.

In data set [3] the target is T3, hNAT1 (human arylamine N-acetyltransferase 1) (Homo sapiens, UniProt P18440).
T3 construct: made in house
T3 sequence (P18440 1-290): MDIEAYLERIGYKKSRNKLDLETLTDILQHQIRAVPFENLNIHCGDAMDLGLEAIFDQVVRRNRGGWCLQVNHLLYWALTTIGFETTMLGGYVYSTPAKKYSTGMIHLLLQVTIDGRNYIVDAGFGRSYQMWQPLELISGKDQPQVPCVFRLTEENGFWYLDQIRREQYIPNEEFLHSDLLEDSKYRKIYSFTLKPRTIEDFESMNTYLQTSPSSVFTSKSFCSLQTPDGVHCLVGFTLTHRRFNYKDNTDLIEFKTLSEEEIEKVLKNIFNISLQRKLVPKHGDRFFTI
The experiment in a line: AcCoA hydrolysis assay, inhibition of hNAT1. The class given is biochemical. As to conditions: for IC50: pABA 500 μM, AcCoA 400 μM, pH 8.0, 5% DMSO. Here is the method: (§4) NAT activity was determined as previously described,[23]; a full procedure is outlined in the (File S1).
(§5) NAT activity was determined by AcCoA hydrolysis assays. The NAT isoform (100 ng) was pre-incubated with para-amino benzoic acid (500 μM) in the assay buffer (5% DMSO/95% 20mM aq Tris.HCl, pH 8.0) for 5 min. at 37 °C in a 96-well plate (Corning). Pre-warmed AcCoA (400 μM, 37 °C) in assay buffer was added to start the reaction (final volume of 100 μL), which was allowed to proceed at 37 °C. Simultaneous quenching and color development was achieved by addition of 25 μL DTNB solution (5 mM DTNB in 100 mM aq Tris.HCl, 6.4 M guanidine.HCl, pH 7.5). The absorbance was immediately read at 405 nm using a plate reader (Tecan Sunrise). The rate of reaction was determined by reference to a standard curve and controls with buffer alone were carried out. For detection of inhibition, the inhibitors tested were dissolved in DMSO and the final percentage of DMSO in the assay was 5% (v/v). […] A dose-response function was used as a model of regression for the data and the curves were estimated by the method of the least squares analysis.

In data set [4] the target is T2, mNat2. The experiment in a line: AcCoA hydrolysis assay, inhibition of mNat2 (wild type). The data set is classed as biochemical. Particulars: for IC50: mNat2_WT, pABA 500 μM, AcCoA 400 μM, pH 8.0, 5% DMSO.
Data set [5] deals with T4, mNat1 (Mus musculus, UniProt P50294).
T4 construct: hexa-histidine tag (cleaved yes); made in house; host or cells: E. coli Rosetta(DE3)pLysS
T4 sequence (P50294 1-290): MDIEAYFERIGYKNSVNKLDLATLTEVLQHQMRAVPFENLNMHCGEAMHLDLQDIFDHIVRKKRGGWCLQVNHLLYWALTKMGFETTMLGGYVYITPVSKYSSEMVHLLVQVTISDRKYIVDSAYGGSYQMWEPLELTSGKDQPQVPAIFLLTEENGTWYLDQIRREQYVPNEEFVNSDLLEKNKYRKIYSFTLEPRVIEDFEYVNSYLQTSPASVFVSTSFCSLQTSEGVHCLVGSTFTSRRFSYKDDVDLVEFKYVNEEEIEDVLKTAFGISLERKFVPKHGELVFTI
The experiment in a line: AcCoA hydrolysis assay, inhibition of mNat1. The class given is biochemical. Particulars: enzyme mNat1, read-out: % Inhibition at 30 μM of 1. The protocol: as §4, §5

A short description of data set [6]: Acid-base (pH) titration by visible spectra. The class given is physicochemical. As to conditions: panel of buffered solutions at diverse pHs with 5% DMSO; 5% DMSO/95% H2O. Here is the method: 5 μL of 1 in DMSO (final concentration 0.1 mM) was added to 95 μL of a panel of solutions buffered at diverse pHs in a flat-bottomed 96-well plate (Corning). Visible spectra of the samples were recorded from 800 to 350 nm on the FLUOstar Omega plate reader (BMG Labtech), then the λmax were determined for all spectra and plotted against pH. A sigmoidal titration curve was fitted using GraphPad®.

Data set [7] addresses T1, hNAT2. The experiment in a line: AcCoA hydrolysis assay, inhibition of hNAT2. The data set is classed as biochemical. Particulars: for enzyme activity retained: hNAT2, inhibitor concentration 30 µM. The protocol: as §4, §5
Data set [8] has as its target T4, mNat1. Description: Visible spectrum of compound in presence of mNat1. The data set is classed as binding. As to conditions: with mNat1. Here is the method: as §1
Another data set has as its target T5, hNAT1 (Homo sapiens, UniProt P18440).
T5 construct: made in house
T5 sequence (P18440 1-290): T3 sequence (P18440 1-290)
Description: Visible spectrum of compound in presence of hNAT1. The data set is classed as binding. Particulars: with hNAT1, 20 mM Tris.HCl pH 8. Here is the method:
as §1, §2, §3

Data set [9] can be described thus: Solubility under NMR conditions for active protein. The class given is physicochemical. As to conditions: 5% DMSO-d6/95% D2O, for 15N-NMR.

For the compound `Cc1cc(C)cc(NC2=C(NS(=O)(=O)c3ccccc3)C(=O)c3ccccc3C2=O)c1` [compound 1, N-(3-(3’’,5’’-Dimethylphenylamino)-1,4-dioxo-1,4-dihydronaphthalen-2-yl)benzenesulfonamide], the “λmax in presence of hNAT2” value at hNAT2 [1] amounted to 498 nm. Besides, the “λmax in presence of mNat2” value on mNat2 [2] is given as 625 nm. The inhibition at 30 µM in data set [3] (30 μM, enzyme hNAT1) turned out to be 93.3 ± 0.9%; at mNat2 [4] (30 μM, enzyme mNat2, read-out: % Inhibition at 30 μM of 1), 92.4 ± 4.4%; at mNat1 [5], 37.6 ± 1.6%; on hNAT2 [7] (30 μM, enzyme hNAT2, read-out: % Inhibition at 30 μM of 1), 10.6 ± 2%. Besides, the figures for the IC50 (in data set [3]; against mNat2 [4]) were 5.3 µM and 1.9 µM, respectively. Also, on mNat2 [4] (competitive towards pABA (25-250 µM), AcCoA 400 µM, 9 ng pure recombinant mNat2, Dixon plot, read-out: Ki (app.)), the Ki stood at 0.42 µM. The pKa in data set [6] was roughly 9.2. In addition, the “λmax in presence of mNat1” value at mNat1 [8] stood at 498 nm. In addition, the “λmax in presence of hNAT1” value on hNAT1 was found to be 585 nm.
In the case of `Cc1cc(C)cc(NC2=C([15NH]S(=O)(=O)c3ccccc3)C(=O)c3ccccc3C2=O)c1` [compound 2, N-(3-(3’’,5’’-Dimethylphenylamino)-1,4-dioxo-1,4-dihydronaphthalen-2-yl)^15N-benzenesulfonamide], the solubility result in [9] is reported as “insufficiently soluble”.
On to `Cc1cc(C)cc(NC2=C(N(C)S(=O)(=O)c3ccccc3)C(=O)c3ccccc3C2=O)c1` [compound 3, N-(3-(3’’,5’’-Dimethylphenylamino)-1,4-dioxo-1,4-dihydronaphthalen-2-yl)-N-methylbenzenesulfonamide], for which the “λmax in presence of mNat2” value on mNat2 [2] came out at 490 nm. Also, the enzyme activity retained entry on hNAT2 [7] is reported as “more than 90%”. The “λmax in presence of hNAT1” value on hNAT1 came to 476 nm.
For the compound `COS(=O)(=NC1=C(Nc2cc(C)cc(C)c2)C(=O)c2ccccc2C1=O)c1ccccc1` (stereo not shown) [compound 4, Methyl-N-3-(3’’,5’’-dimethylphenylamino)-1,4-dioxo-1,4-dihydronaphthalen-2-ylbenzenesulfonimidate], the melting point was in the range of 71 to 74 °C. In addition, the “λmax in presence of mNat2” value at mNat2 [2] was found to be 548 nm. This compound yielded an IC50 in data set [3] of 3.6 µM. Also, the IC50 against mNat2 [4] worked out at 14.6 µM. The enzyme activity retained entry at hNAT2 [7] is “more than 90%”.
In the case of `Cc1cc(C)cc(NC2=C(OS(=O)(=O)c3ccccc3)C(=O)c3ccccc3C2=O)c1` [compound 5, 3-((3’’,5’’-Dimethylphenyl)amino)-1,4-dioxo-1,4-dihydronaphthalen-2-ylbenzenesulfonate], the “λmax in presence of mNat2” value at mNat2 [2] came to 492 nm. In addition, the IC50 was 93 µM in data set [3] and greater than 150 µM against mNat2 [4]. Also, the “λmax in presence of hNAT1” value at hNAT1 is recorded as 492 nm.
